Measurements: ChEMBL document CHEMBL1201862, “PubChem BioAssay data set” (2004)
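A five-concentration, 48-hour dose response in 96-well plates underlies each endpoint, interpolated linearly between surrounding concentrations. GI50 = concentration required for 50% inhibition of growth.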 Activity calls are given as the source filed them. Cut-off read from the data, not from the text of the source: active = GI50 up to about 1.1 µM and inactive = higher.

Key:
Assay in all cases: growth of human tumour cells (NCI), 48 h
A549 = system: A549
CCRF-CEM = system: CCRF-CEM
COLO 205 = system: COLO 205
DLD-1 = system: DLD-1
DMS-273 = system: DMS-273
EKVX = system: EKVX
HCC 2998 = system: HCC 2998
HCT-15 = system: HCT-15
HL-60 = system: HL-60
HOP-62 = system: HOP-62
HOP-92 = system: HOP-92
HT-29 = system: HT-29
IGROV-1 = system: IGROV-1
K562 = system: K562
KM12 = system: KM12
LOX IMVI = system: LOX IMVI
LXFL 529 = system: LXFL 529
M14 = system: M14
M19-MEL = system: M19-MEL
MOLT-4 = system: MOLT-4
NCI-H226 = system: NCI-H226
NCI-H23 = system: NCI-H23
NCI-H460 = system: NCI-H460
NCI-H522 = system: NCI-H522
OVCAR-3 = system: OVCAR-3
OVCAR-4 = system: OVCAR-4
OVCAR-8 = system: OVCAR-8
RPMI-8226 = system: RPMI-8226
RXF 393 = system: RXF 393
RXF 631 = system: RXF 631
SF-539 = system: SF-539
SK-MEL-28 = system: SK-MEL-28
SK-MEL-5 = system: SK-MEL-5
SK-OV-3 = system: SK-OV-3
SN12C = system: SN12C
SNB-19 = system: SNB-19
SNB-75 = system: SNB-75
SNB-78 = system: SNB-78
SW-620 = system: SW-620
TK-10 = system: TK-10
U-251 = system: U-251
UACC-257 = system: UACC-257
UACC-62 = system: UACC-62
786-0 = system: 786-0
A498 = system: A498
ACHN = system: ACHN
DMS-114 = system: DMS-114
HCT-116 = system: HCT-116
HOP-18 = system: HOP-18
KM-20L2 = system: KM-20L2
Malme-3M = system: Malme-3M
SF-268 = system: SF-268
SF-295 = system: SF-295
SK-MEL-2 = system: SK-MEL-2
SR = system: SR
UO-31 = system: UO-31
XF498 = system: XF498
CAKI-1 = system: CAKI-1
OVCAR-5 = system: OVCAR-5

Measured: GI50

CC(C)(C)N1C(C(=O)c2ccccc2)C1c1ccccc1 (stereo not given)
> 100 µM: HCT-15
inactive: A549 > 100 µM | CCRF-CEM > 100 µM | COLO 205 > 100 µM | DLD-1 > 100 µM | DMS-273 > 100 µM | EKVX > 100 µM | HCC 2998 > 100 µM | HL-60 > 100 µM | HOP-62 > 100 µM | HOP-92 > 100 µM | HT-29 > 100 µM | IGROV-1 > 100 µM | K562 > 100 µM | KM12 > 100 µM | LOX IMVI > 100 µM | LXFL 529 > 100 µM | M14 > 100 µM | M19-MEL > 100 µM | MOLT-4 > 100 µM | NCI-H226 > 100 µM | NCI-H23 > 100 µM | NCI-H460 > 100 µM | NCI-H522 > 100 µM | OVCAR-3 > 100 µM | OVCAR-4 > 100 µM | OVCAR-8 > 100 µM | RPMI-8226 > 100 µM | RXF 393 > 100 µM | RXF 631 > 100 µM | SF-539 > 100 µM | SK-MEL-28 > 100 µM | SK-MEL-5 > 100 µM | SK-OV-3 > 100 µM | SN12C > 100 µM | SNB-19 > 100 µM | SNB-75 > 100 µM | SNB-78 > 100 µM | SW-620 > 100 µM | TK-10 > 100 µM | U-251 > 100 µM | UACC-257 > 100 µM | UACC-62 > 100 µM

CC12CC[C@H](O)C(C)(C)[C@H]1CC[C@](C)(O)C2COc1ccc2ccc(=O)oc2c1 (stereo not given in full)
inactive: 786-0 > 100 µM | A498 > 100 µM | A549 81.7 µM | ACHN > 100 µM | CCRF-CEM > 100 µM | COLO 205 > 100 µM | DLD-1 > 100 µM | DMS-114 85.3 µM | DMS-273 > 100 µM | EKVX > 100 µM | HCC 2998 > 100 µM | HCT-116 50.9 µM | HL-60 53.1 µM | HOP-18 > 100 µM | HOP-62 > 100 µM | HOP-92 > 100 µM | HT-29 > 100 µM | IGROV-1 > 100 µM | K562 71 µM | KM-20L2 > 100 µM | KM12 > 100 µM | LOX IMVI > 100 µM | LXFL 529 > 100 µM | M14 > 100 µM | M19-MEL > 100 µM | MOLT-4 80.9 µM | Malme-3M 73.6 µM | NCI-H226 > 100 µM | NCI-H23 > 100 µM | NCI-H460 > 100 µM | NCI-H522 > 100 µM | OVCAR-3 > 100 µM | OVCAR-4 > 100 µM | OVCAR-8 > 100 µM | RPMI-8226 99.1 µM | RXF 393 > 100 µM | SF-268 > 100 µM | SF-295 > 100 µM | SF-539 > 100 µM | SK-MEL-28 > 100 µM | SK-MEL-2 > 100 µM | SK-OV-3 > 100 µM | SN12C > 100 µM | SNB-19 > 100 µM | SNB-75 62.2 µM | SNB-78 48.4 µM | SR > 100 µM | SW-620 > 100 µM | TK-10 > 100 µM | U-251 > 100 µM | UACC-257 > 100 µM | UACC-62 64.4 µM | UO-31 > 100 µM | XF498 > 100 µM
> 100 µM: HCT-15

c1c2c(cc(-n3nnc4c3CCCCCC4)c1-n1nnc3c1CCCCCC3)CCCCCC2
5.19 µM: HCT-15
inactive: A498 10.4 µM | ACHN 5.71 µM | CAKI-1 2.12 µM | CCRF-CEM 3.79 µM | DMS-273 2.99 µM | EKVX 10.7 µM | HCC 2998 12.8 µM | HCT-116 5.7 µM | HL-60 3.8 µM | HOP-62 17.8 µM | HOP-92 3.28 µM | HT-29 6.93 µM | IGROV-1 18.3 µM | K562 4.36 µM | KM12 11.8 µM | LOX IMVI 11.8 µM | M14 13.7 µM | M19-MEL 8.77 µM | MOLT-4 2.57 µM | NCI-H226 16 µM | NCI-H23 > 10 µM | NCI-H460 6.3 µM | OVCAR-3 12.1 µM | OVCAR-5 15.8 µM | OVCAR-8 12.7 µM | RXF 393 8.07 µM | RXF 631 10.1 µM | SF-268 9.46 µM | SF-295 12 µM | SK-MEL-28 17.2 µM | SK-MEL-2 13.1 µM | SK-MEL-5 11.7 µM | SK-OV-3 14.8 µM | SN12C 10.8 µM | SNB-19 12.8 µM | SNB-75 12.7 µM | SNB-78 13.6 µM | SR 3.54 µM | SW-620 11.2 µM | TK-10 12.6 µM | U-251 10.1 µM | UACC-257 11.7 µM | UACC-62 12.4 µM | UO-31 5.4 µM | XF498 1.9 µM
active: NCI-H522 0.485 µM
